Experimental data from patent US8877720B2, “Epirubicin derivatives” (Tianjin Hemay Bio-Tech Co., Ltd., priority 2009, dated 2014).
pIC50: −log10 of the molar value. Like-named read-outs stand apart in the source and are kept apart here.

Tests used:
Hep G2 = experiment: Cytotoxicity assay (MTS/MTT), Hep G2 cells; assay type: cell-based, human; details: read-out: Inhibitory Concentration 50 for Cell Growth (IC50)
Experimental: (§1) Cytotoxicity Assay (MTS Assay)
HePG-2: human liver cancer cell strains
(§2) Cells were inoculated in RPMI 1640 cell culture solution with 10% fetal bovine serum (supplemented with 100 ku/L of penicillin, streptomycin, respectively). The petri dishes were left in a cell incubator containing 5% CO2 under the temperature of 37° C. The medium was changed every 2-3 days, and was digested with 0.25% trypsin solution. The cells were subcultured and collected.
(§3) The cells in the exponential phase were formulated into cell suspensions with desired concentrations using RPMI 1640 cell culture solutions containing 10% fetal bovine serum. The suspensions were added into 96-well cell culture plates according to 3,000-5,000 cells per well (100 μl). After being cultured for 24 hr, 100 μl of assay compounds having different concentrations were added into each well. Four parallel tests were conducted for each well. The supernatants were discarded after being cultured for 72-120 hr. 100 μl of 0.5 mg/ml MTT fresh serum-free culture solutions were added into each well. The resultant supernatants were discarded after being cultured for 4 hr at 37° C. Formazan was dissolved with 200 μl DMSO. The resulting mixture was gently shaken for 15 min. Optical absorption values (OD-values) at 570 nm of detection wavelength and 450 nm of reference wavelength were measured with ELISA reader.
(§4) The data were represented by x±s. […]

786-O = experiment: Cytotoxicity assay (MTS/MTT), 786-O cells; assay type: cell-based, human
Experimental: as §1
786-O: human kidney cancer cell strains
as §2, §3, §4

NCI H446 = experiment: Cytotoxicity assay (MTS/MTT), NCI-H446 cells; assay type: cell-based, human; details: read-out: Inhibitory Concentration 50 for Cell Growth (IC50)
Experimental: as §1
NCI-H446: human lung cancer cell strains
as §2, §3, §4

A431 Cells = experiment: Cytotoxicity assay (MTS/MTT), A431 cells; assay type: cell-based, human
Excerpt: A431: epidermoid cell strains

THP-1 = experiment: Cytotoxicity assay (MTS/MTT), THP-1 cells; assay type: cell-based, human; details: read-out: Inhibitory Concentration 50 for Cell Growth (IC50)
Excerpt: THP-1: human leukemia cell strains

PC-3 Cells = experiment: Cytotoxicity assay (MTS/MTT), PC-3 cells; assay type: cell-based, human; details: for pIC50: PC-3 Cells, read-out: Inhibitory Concentration 50 for Cell Growth (IC50)
Experimental: as §1
PC-3: human prostate cancer cell strains
as §2, §3
The data were represented by x±s. Inhibition Ratio=(OD values in control groups−OD values in administration groups)/OD values in control groups×100%. Anti-cancer effects were represented by maximum inhibition ratio Imax and inhibitory concentration 50 (IC50). Drawings were obtained with software MicroCal Origin. Inhibition curves of assay compounds for inhibiting the growth of tumor cells were fitted by the four-parameter program Logistic in the software so as to give the inhibitory concentration 50 (IC50:μg/ml) for inhibiting the proliferation of tumor cells. […]

K562 = experiment: Cytotoxicity assay (MTS/MTT), K562 cells; assay type: cell-based, human
Experimental: as §1
K562: human leukemia cell strain
as §2, §3, §4

DU-145 = experiment: Cytotoxicity assay (MTS/MTT), DU-145 cells; assay type: cell-based, human; details: read-out: Inhibitory Concentration 50 for Cell Growth (IC50)
Experimental: as §1
DU-145: human prostate cancer cell strains
as §2, §3, §4

U937 Cells = experiment: Cytotoxicity assay (MTS/MTT), U937 cells; assay type: cell-based, human; details: for pIC50: U937 Cells, read-out: Inhibitory Concentration 50 for Cell Growth (IC50)
Experimental: as §1
U937: human lymphoma cell strains
as §2, §3
(§5) The data were represented by x±s. Inhibition Ratio=(OD values in control groups−OD values in administration groups)/OD values in control groups×100%. Anti-cancer effects were represented by maximum inhibition ratio Imax and inhibitory concentration 50 (IC50). Drawings were obtained with software MicroCal Origin. Inhibition curves of assay compounds for inhibiting the growth of tumor cells were fitted by the four-parameter program Logistic in the software so as to give the inhibitory concentration 50 (IC50:μg/ml) for inhibiting the proliferation of tumor cells.
The exposure concentrations of the assay compounds were 0.001 μg/ml, 0.003 μg/ml, 0.009 μg/ml, 0.027 μg/ml, 0.082 μg/ml, 0.247 μg/ml, 0.741 μg/ml, 2.222 μg/ml, 6.667 μg/ml and 20 μg/ml. […]

HL-60 cells = experiment: Cytotoxicity assay (MTS/MTT), HL-60 cells; assay type: cell-based, human; details: for Inhibition Ratio (%): HL-60 cells, concentration of 1 μM
Experimental: as §1
HL-60: human leukemia cell strains
as §2, §3, §5
The exposure concentrations of the assay compounds were 0.001 μg/ml, 0.003 μg/ml, 0.009 μg/ml, 0.027 μg/ml, 0.082 μg/ml, 0.247 μg/ml, 0.741 μg/ml, 2.222 μg/ml, 6.667 μg/ml and 20 μg/ml. The exposure concentrations of adriamycin (as positive drugs) were 1.25 μg/ml, 5 μg/ml and 20 μg/ml. In 96-well plates, 3,000-5,000 cells were inoculated in each well. Four parallel assays were conducted for each concentration.

Kunming mice = experiment: Maximum tolerated dose (MTD) in vivo of mice
Experimental: Assays on Maximum Tolerated Dose (MTD) In Vivo of Mice
(1) Assay animals: 9 Kunming Mice, of which five were male and four were female, with a weight of 20-22 g (purchased from Lab Animals Center of Chinese Academy of Medical Sciences, License No. scxk (jin) 2005-0001)
(2) Assay medicine: compound in Example 1
Kunming mice were 9, of which 5 were male and 4 were female. Each mouse was administered the compound in Example 1 (20 mg/kg, iv) with a dose volume of 20 ml/kg.
The process for preparing a solution of the compound in Example 1: 4.53 mg of the compound in Example 1 was weighed and dissolved by adding 40 μL of DMSO (dimethylsulfoxide). 340 μL of RH40 (polyoxyethylene castor oil) were added. After mixing homogeneously, 4.156 mL of physiological saline was added to the mixture. After mixing homogeneously, the mixture was filtered with 0.45 μm filter membrane to give a 1 mg/ml solution of the compound in Example 1.
Observation time: 14 days
Observation indicators: weight, appearance, breath, action, reflection, defecation

A549 = experiment: Cytotoxicity assay (MTS/MTT), A549 cells; assay type: cell-based, human
Experimental: as §1
A549: human lung cancer cell strains
as §2, §3, §4

NCI H460 = experiment: Cytotoxicity assay (MTS/MTT), NCI-H460 cells; assay type: cell-based, human; details: read-out: Inhibitory Concentration 50 for Cell Growth (IC50)
Excerpt: NCI-H460: human lung cancer cell strains

[1] = 20 mg/kg via tail vein, observed for 14 days
[2] = single intravenous injection 20 mg/kg, 9 mice, 14 days observation

## COc1cccc2c1C(=O)c1c(O)c3c(c(O)c1C2=O)C[C@@](O)(C(=O)CO)C[C@@H]3O[C@H]1C[C@H](n2cccc2)[C@@H](O)[C@H](C)O1 [Example 1, 3′-pyrrolyl epirubicin]
Hep G2
  pIC50: 7.57
786-O; 786-O, read-out: Inhibitory Concentration 50 for Cell Growth (IC50)
  pIC50: 7.13
786-O; kidney cancer 786-0
  Effect on growth of tumor cell strain: strong inhibitory effects
NCI H446
  pIC50: 6.80
A431 Cells; read-out: Inhibitory Concentration 50 for Cell Growth (IC50)
  pIC50: 8.20
THP-1
  pIC50: 8.05
PC-3 Cells
  pIC50: 8.00
PC-3 Cells; human prostate cancer PC-3
  Effect on growth of tumor cell strain: strong inhibitory effects
K562; K562, read-out: Inhibitory Concentration 50 for Cell Growth (IC50)
  pIC50: 7.36
K562; human leukemia K562
  Effect on growth of tumor cell strain: strong inhibitory effects
DU-145
  pIC50: 8.07
U937 Cells
  pIC50: 7.92
U937 Cells; lymphoma U937
  Effect on growth of tumor cell strain: strong inhibitory effects
HL-60 cells; HL-60, read-out: Inhibitory Concentration 50 for Cell Growth (IC50)
  pIC50: 6.45
HL-60 cells
  Inhibition Ratio (%): 80%
Kunming mice; 20 mg/kg via tail vein, dissected after 14 days
  Findings on dissection at the end of the test: no abnormal phenomena were observed
Kunming mice; [1]
  Change on the weights of the mice: no significant change on the weights
  Death of mice: no animal died
  Other indicators (appearance, breath, action, reflection, defecation): not obviously abnormal
Kunming mice; [2]
  Death Number: 0
  Mortality Rate (%): 0%
Kunming mice; single intravenous injection 20 mg/kg, Day 1
  Average Weight (g) of Mice: 20.9 g
Kunming mice; single intravenous injection 20 mg/kg, Day 2
  Average Weight (g) of Mice: 20.2 g
Kunming mice; single intravenous injection 20 mg/kg, Day 3
  Average Weight (g) of Mice: 20.4 g
Kunming mice; single intravenous injection 20 mg/kg, Day 5
  Average Weight (g) of Mice: 19.7 g
Kunming mice; single intravenous injection 20 mg/kg, Day 6
  Average Weight (g) of Mice: 20.2 g
Kunming mice; single intravenous injection 20 mg/kg, Day 7
  Average Weight (g) of Mice: 19.8 g
Kunming mice; single intravenous injection 20 mg/kg, Day 8
  Average Weight (g) of Mice: 20.0 g
Kunming mice; single intravenous injection 20 mg/kg, Day 9
  Average Weight (g) of Mice: 20.1 g
Kunming mice; single intravenous injection 20 mg/kg, Day 10
  Average Weight (g) of Mice: 20.5 g
Kunming mice; single intravenous injection 20 mg/kg, Day 11
  Average Weight (g) of Mice: 20.4 g
Kunming mice; single intravenous injection 20 mg/kg, Day 12
  Average Weight (g) of Mice: 20.4 g
Kunming mice; single intravenous injection 20 mg/kg, Day 13
  Average Weight (g) of Mice: 20.8 g
Kunming mice; single intravenous injection 20 mg/kg, Day 14
  Average Weight (g) of Mice: 21.1 g
A549; A549, read-out: Inhibitory Concentration 50 for Cell Growth (IC50)
  pIC50: 6.69
A549; lung cancer A549
  Effect on growth of tumor cell strain: strong inhibitory effects
NCI H460
  pIC50: 7.85

## COc1cccc2c1C(=O)c1c(O)c3c(c(O)c1C2=O)CC(O)(C(=O)CO)CC3OC1CC(N2C(=O)CCCC2=O)C(O)C(C)O1 (centres unmarked) [Example 5, 3′-glutarimido epirubicin]
HL-60 cells
  Inhibition Ratio (%): 35%

## COc1cccc2c1C(=O)c1c(O)c3c(c(O)c1C2=O)C[C@@](O)(C(=O)CO)C[C@@H]3O[C@H]1C[C@H](N2C(=O)c3cccnc3C2=O)[C@@H](O)[C@H](C)O1 [Example 7, 3′-(pyridino-(2,3)succinimidyl)epirubicin]
HL-60 cells
  Inhibition Ratio (%): 10%

## COc1cccc2c1C(=O)c1c(O)c3c(c(O)c1C2=O)C[C@@](O)(C(=O)CO)C[C@@H]3O[C@H]1C[C@H](N2C(=O)c3ccccc3C2=O)[C@@H](O)[C@H](C)O1 [Example 8, 3′-(benzo-(2,3)succinimidyl)epirubicin]
HL-60 cells
  Inhibition Ratio (%): 71%

## COc1cccc2c1C(=O)c1c(O)c3c(c(O)c1C2=O)C[C@@](O)(C(=O)CO)C[C@@H]3O[C@H]1C[C@H](N)[C@@H](O)[C@H](C)O1 [Epirubicin]
A431 Cells; Homo sapiens, A-431, read-out: Inhibitory Concentration 50 for Cell Growth (IC50)
  pIC50: 7.74
THP-1; Homo sapiens
  pIC50: 7.17
PC-3 Cells; Homo sapiens
  pIC50: 6.96
U937 Cells; Homo sapiens, U-937
  pIC50: 8.00
NCI H460; Homo sapiens
  pIC50: 7.60

## COc1cccc2c1C(=O)c1c(O)c3c(c(O)c1C2=O)C[C@@](O)(C(=O)CO)C[C@@H]3O[C@H]1C[C@H](N2C(=O)C=CC2=O)[C@@H](O)[C@H](C)O1 [Example 6, 3′-maleimidyl epirubicin]
HL-60 cells
  Inhibition Ratio (%): 43%

## COc1cccc2c1C(=O)c1c(O)c3c(c(O)c1C2=O)CC(O)(C(=O)CO)CC3OC1CC(N2C(=O)CCC2=O)C(O)C(C)O1 (centres unmarked) [Example 4, 3′-succinimidyl epirubicin]
HL-60 cells
  Inhibition Ratio (%): 62%
